Key:
[1] = system: antigen-induced anaphylactic bronchoconstriction; test: Effect on anaphylactic bronchoconstriction in passively sensitized guinea-pig; assay type: in vivo; conditions: 2 mg/kg, i.v.
Method: (iii) Effect on anaphylactic bronchoconstriction in passively sensitized guinea-pig
Male guinea-pigs (350-450 g) were passively sensitized with intravenous (i.v.) injection of 0.125 ml rabbit anti-EA serum (Cappel Laboratories) 1 day preceding the experiment. […] The right jugular vein was cannulated for the administration of the all agents and trachea was cannulated to record total pulmonary resistance. Guinea-pigs were artificially ventilated by a small animal respirator (Shinano, Model SN-480-7) set at a stroke volume of 4-5 ml and a rate of 50 breaths per min. […] The increase in air overflow volume was expressed as a percentage of the maximum bronchoconstriction obtained by clamping off the trachea. Following surgical preparation, the animals were pretreated with indomethacin (1.0 mg/kg, 10 min), pyrilamine (2 mg/kg, 6 min) and propranolol (0.1 mg/kg, 5 min) prior to the EA challenge (0.1 or 10 mg/kg). All test compounds, 2 mg/kg in 3% Tween 80 or 3% PEG-400, were administered 1 min before the EA challenge. Inhibition (%) of bronchoconstriction was determined as follows Inhibition (%)=(1.0% -maximum bronchoconstriction in test/% maximum bronchoconstriction in control) ×100.
In the Table, the dose of EA was 10 mg/kg, and each compound was dissolved or suspended in 3% Tween 80.
In the Table, the dose of EA was 0.1 mg/kg.
*: PEG represents polyethylene glycol400.

[2] = system: LTC4; test: LTC4 antagonism in isolated guinea-pig trachea (LTC4-induced contraction); assay type: cell-based; conditions: Cavia porcellus, 5 min, test compound 10^-5 g/ml; LTC4 2×10^-8 g/ml; guinea-pig trachea; read-out: LTC4 antagonism
Method: (§1) (ii) LTC4 and LTD4 antagonisms in guinea-pig trachea
(§2) Antagonism for LTC4 and LTD4 were determined in isolated guinea-pig trachea prepared as spiral strip. 10 Tracheal preparations were suspended under 1 g tension in […] and they were incubated for 1 hr prior to use. Contractile responses to LTC4 (2×10^-8 g/ml) and LTD4 (2×10^-8 g/ml) were obtained after the maximal response to histamine (10^-4 M). Test compounds dissolved in 100% dimethyl sulfoxide were added to the organ baths (final concentration of 10^-5 g/ml) 5 min prior to LTC4 and LTD4 addition, and then contractile responses to LTC4 and LTD4 were compared with those of control which was obtained from a paired trachea in the absence of test compounds. LTC4 - and LTD4 -induced contractions were expressed as a percentage of the maximal response to histamine. The antagonism was determined as follows: Antagonism (%)=(1.0-% contraction in test/% contraction in control)×100

[3] = system: ddY strain male; test: Acute toxicity test, method-(2), intraperitoneal injection; assay type: in vivo, ddY strain male (4 weeks old); conditions: 7 days
Method: The lethal ratio was determined in ddY strain male (4 weeks old) at 7 days after the intraperitoneal injection of test compounds.

[4] = system: LTD4; test: LTD4 antagonism in isolated guinea-pig trachea (LTD4-induced contraction); assay type: cell-based; conditions: Cavia porcellus, 5 min, test compound 10^-5 g/ml, LTD4 2×10^-8 g/ml
Method: as §1, §2

[5] = EA 0.1 mg/kg, PEG (polyethylene glycol 400)

Row | Structure (SMILES) | Inhibition of anaphylactic bronchoconstriction ([1]; EA 10 mg/kg, 3% Tween 80) | inhibition at 10 µg/mL [2] | Lethal ratio (Death number/Experimental number) ([3]; 200 mg/kg) | Inhibition of anaphylactic bronchoconstriction ([1]; EA 0.1 mg/kg, Tween 80) | inhibition at 10 µg/mL [4] | Lethal ratio (Death number/Experimental number) ([3]; 100 mg/kg) | Lethal ratio (Death number/Experimental number) ([3]; 400 mg/kg) | Inhibition of anaphylactic bronchoconstriction [1, 5]
1 | CCCN(CCC)Cc1ccc(CN(C)c2cnn(C(C)(C)C)c(=O)c2Cl)cc1 [Compound No. 43, 4-Chloro-5-(4-di-n-propylaminomethyl-N-methylbenzylamino)-2-t-butyl-3(2H)pyridazinone] | 14% | 57% |  |  |  |  |  | 
2 | CCn1ncc(NCc2ccc(C)cc2C)c(Cl)c1=O [compound 79] |  |  | 0/2 | 61% | 100% |  |  | 
3 | CCOc1cc(CNc2cnn(CC)c(=O)c2Cl)ccc1OC [compound 102] |  | 97% |  |  | 86% | 0/2 |  | 
4 | COC(=O)/C=C/c1ccc(CNc2cnn(C(C)(C)C)c(=O)c2Cl)cc1 [compound 53] | 38% |  |  |  | 38% |  |  | 
5 | CCOc1cc(OC)ccc1CNc1cnn(C(C)C)c(=O)c1Cl [compound 109] |  |  |  | 30% | 92% |  |  | 
6 | CCn1ncc(NCc2cccc(C)c2)c(Cl)c1=O [compound 75] |  | 100% |  | 57% | 90% | 0/2 |  | 
7 | CCOc1ccccc1CNc1cnn(CC)c(=O)c1Cl [compound 90] |  |  | 0/2 |  | 96% |  | 0/2 | 
8 | Cc1ccc(CNc2cnn(C(C)C)c(=O)c2Cl)cc1 [compound 77] |  |  | 0/2 |  | 90% |  | 0/2 | 
9 | COc1ccc(CNc2cnn(C(C)C)c(=O)c2Cl)c(OC)c1 [Compound No. 97, 4-chloro-5-(2,4-dimethoxybenzylamino)-2-i-propyl-3(2H)pyridazinone] |  | 100% | 0/2 | 32% | 100% |  | 0/1 | 
10 | CCOc1cccc(CNc2cnn(CC)c(=O)c2Cl)c1 [compound 88] |  | 81% | 0/2 | 45% | 95% |  | 0/2 | 
11 | CCOc1cc(CNc2cnn(C(C)C)c(=O)c2Cl)ccc1OC [compound 103] |  | 100% | 0/2 | 76% | 100% |  |  | 
12 | CCCOc1cc(CNc2cnn(C(C)C)c(=O)c2Cl)ccc1OC [Compound No. 106, 4-Chloro-5-(3-n-propoxy-4-methoxybenzylamino)-2-i-propyl-3(2H)pyridazinone] |  | 100% | 0/2 | 65% | 100% |  | 0/1 | 
13 | CCCOc1cccc(CNc2cnn(C(C)C)c(=O)c2Cl)c1 [compound 94] |  | 83% | 0/2 |  | 75% |  |  | 
14 | CC(C)n1ncc(NCc2ccccc2)c(Cl)c1=O [Compound No. 74, 4-Chloro-5-(benzylamino)-2-i-propyl-3(2H)pyridazinone] |  |  |  | 31% | 91% |  |  | 
15 | Cc1ccccc1CNc1cnn(C(C)C)c(=O)c1Cl [compound 78] |  |  | 0/2 |  | 97% |  | 0/1 | 
16 | CCOc1ccc(CNc2cnn(C(C)C)c(=O)c2Cl)cc1 [compound 91] |  |  |  |  | 93% | 0/2 |  | 73%
17 | COc1ccc(CNc2cnn(C(C)C)c(=O)c2Cl)cc1 [Compound No. 87] |  |  | 0/2 | 61% | 100% |  | 0/2 | 
18 | CCOc1cccc(CNc2cnn(C(C)C)c(=O)c2Cl)c1 [Compound No. 89] |  | 89% | 0/2 |  | 95% |  | 0/1 | 79%
19 | CC(C)n1ncc(NCc2ccc3c(c2)OCO3)c(Cl)c1=O [compound 119] |  | 100% |  | 33% | 100% |  |  | 
20 | COc1ccccc1CNc1cnn(C(C)C)c(=O)c1Cl [compound 86] |  | 100% | 0/2 | 29% | 87% |  | 0/1 | 
21 | CCn1ncc(NCc2ccc(OC)c(OC)c2)c(Cl)c1=O [Compound No. 13] | 43% |  |  |  | 76% |  |  | 
22 | COc1ccc(CNc2cnn(C(C)C)c(=O)c2Cl)cc1OC [Compound No. 15] | 56% | 100% |  |  | 80% |  |  | 
23 | CCCn1ncc(NCc2ccc(OC)c(OC)c2)c(Cl)c1=O [Compound No. 14, 4-Chloro-5-(3,4-dimethoxybenzylamino)-2-n-propyl-3-(2H)pyridazinone] | 28% | 100% |  |  | 36% |  |  | 
24 | CCCOc1cc(OC)ccc1CNc1cnn(CC)c(=O)c1Cl [compound 112] |  |  |  | 49% | 86% |  |  | 
25 | Cc1cccc(CNc2cnn(C(C)C)c(=O)c2Cl)c1 [compound 76] |  |  | 0/2 |  | 97% |  | 0/1 | 
26 | CCCOc1cc(CNc2cnn(CC)c(=O)c2Cl)ccc1OC [Compound No. 105] |  | 100% |  | 29% | 100% | 0/2 |  | 

Source: US5098900A, “3(2H)pyridazinone, process for its preparation and anti-allergic agent containing it” (Nissan Chemical Industries Ltd., priority 1984, dated 1992)
